Assay results as given in ChEMBL document CHEMBL1201862, “PubChem BioAssay data set” (2004).
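Exposure lasted 48 hours, with cells grown in 96-well plates and compounds tested at five concentrations. The concentration for 50% growth inhibition is given as GI50.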 Activity calls are given as the source filed them. Cut-off read from the data, not from the text of the source: active = GI50 up to about 1.1 µM and inactive = higher.

Assays:
Assay in all cases: inhibition of tumour cell growth, NCI panel, 48 h
NCI-H23 = tested on: NCI-H23
NCI-H522 = tested on: NCI-H522
UACC-62 = tested on: UACC-62
SF-295 = tested on: SF-295
UACC-257 = tested on: UACC-257
SF-539 = tested on: SF-539
HT-29 = tested on: HT-29
RXF 393 = tested on: RXF 393
OVCAR-8 = tested on: OVCAR-8
SR = tested on: SR
LOX IMVI = tested on: LOX IMVI
TK-10 = tested on: TK-10
Hs-578T = tested on: Hs-578T
OVCAR-3 = tested on: OVCAR-3
MDA-MB-231 = tested on: MDA-MB-231
Malme-3M = tested on: Malme-3M
SW-620 = tested on: SW-620
MDA-N = tested on: MDA-N
UO-31 = tested on: UO-31
HCC 2998 = tested on: HCC 2998
SN12C = tested on: SN12C
K562 = tested on: K562
HOP-92 = tested on: HOP-92
PC-3 = tested on: PC-3
NCI/ADR-RES = tested on: NCI/ADR-RES
SK-MEL-5 = tested on: SK-MEL-5
SF-268 = tested on: SF-268
T47D = tested on: T47D
HOP-62 = tested on: HOP-62
CAKI-1 = tested on: CAKI-1
HL-60 = tested on: HL-60
BT-549 = tested on: BT-549
OVCAR-4 = tested on: OVCAR-4
DU-145 = tested on: DU-145
MOLT-4 = tested on: MOLT-4
A498 = tested on: A498
RPMI-8226 = tested on: RPMI-8226
SK-MEL-2 = tested on: SK-MEL-2
M14 = tested on: M14
OVCAR-5 = tested on: OVCAR-5
EKVX = tested on: EKVX
COLO 205 = tested on: COLO 205
HCT-15 = tested on: HCT-15
ACHN = tested on: ACHN
HCT-116 = tested on: HCT-116
U-251 = tested on: U-251
KM12 = tested on: KM12
SK-OV-3 = tested on: SK-OV-3
786-0 = tested on: 786-0
MCF7 = tested on: MCF7
NCI-H460 = tested on: NCI-H460
MDA-MB-435 = tested on: MDA-MB-435
CCRF-CEM = tested on: CCRF-CEM
A549 = tested on: A549
SNB-75 = tested on: SNB-75
SNB-19 = tested on: SNB-19
IGROV-1 = tested on: IGROV-1
SK-MEL-28 = tested on: SK-MEL-28
NCI-H226 = tested on: NCI-H226

CCSc1s/c(=N/c2ccc(/N=c3\sc(C)c(SC)s3)cc2)sc1-c1ccc(C)cc1
GI50 (NCI-H23): > 100 µM (inactive) | GI50 (NCI-H522): > 100 µM (inactive) | GI50 (UACC-62): > 100 µM (inactive) | GI50 (SF-295): > 100 µM (inactive) | GI50 (UACC-257): > 100 µM (inactive) | GI50 (SF-539): > 100 µM (inactive) | GI50 (HT-29): > 100 µM (inactive) | GI50 (RXF 393): > 100 µM (inactive) | GI50 (OVCAR-8): > 100 µM (inactive) | GI50 (SR): > 100 µM (inactive) | GI50 (LOX IMVI): > 100 µM (inactive) | GI50 (TK-10): > 100 µM (inactive) | GI50 (Hs-578T): > 100 µM (inactive) | GI50 (OVCAR-3): > 100 µM (inactive) | GI50 (MDA-MB-231): > 100 µM (inactive) | GI50 (Malme-3M): > 100 µM (inactive) | GI50 (SW-620): > 100 µM (inactive) | GI50 (MDA-N): > 100 µM (inactive) | GI50 (UO-31): > 100 µM (inactive) | GI50 (HCC 2998): > 100 µM (inactive) | GI50 (SN12C): > 100 µM (inactive) | GI50 (K562): > 100 µM (inactive) | GI50 (HOP-92): > 100 µM (inactive) | GI50 (PC-3): > 100 µM (inactive) | GI50 (NCI/ADR-RES): > 100 µM (inactive) | GI50 (SK-MEL-5): > 100 µM (inactive) | GI50 (SF-268): > 100 µM (inactive) | GI50 (T47D): > 100 µM (inactive) | GI50 (HOP-62): > 100 µM (inactive) | GI50 (CAKI-1): > 100 µM (inactive) | GI50 (HL-60): > 100 µM (inactive) | GI50 (BT-549): > 100 µM (inactive) | GI50 (OVCAR-4): > 100 µM (inactive) | GI50 (DU-145): > 100 µM (inactive) | GI50 (MOLT-4): > 100 µM (inactive) | GI50 (A498): > 100 µM (inactive) | GI50 (RPMI-8226): > 100 µM (inactive) | GI50 (SK-MEL-2): > 100 µM (inactive) | GI50 (M14): > 100 µM (inactive) | GI50 (OVCAR-5): > 100 µM (inactive) | GI50 (EKVX): > 100 µM (inactive) | GI50 (COLO 205): > 100 µM (inactive) | GI50 (HCT-15): > 100 µM | GI50 (ACHN): > 100 µM (inactive) | GI50 (HCT-116): > 100 µM (inactive) | GI50 (U-251): > 100 µM (inactive) | GI50 (KM12): > 100 µM (inactive) | GI50 (SK-OV-3): > 100 µM (inactive) | GI50 (786-0): > 100 µM (inactive) | GI50 (MCF7): > 100 µM (inactive) | GI50 (NCI-H460): > 100 µM (inactive) | GI50 (MDA-MB-435): > 100 µM (inactive) | GI50 (CCRF-CEM): > 100 µM (inactive) | GI50 (A549): > 100 µM (inactive) | GI50 (SNB-75): 32 µM (inactive) | GI50 (SNB-19): > 100 µM (inactive) | GI50 (IGROV-1): > 100 µM (inactive) | GI50 (SK-MEL-28): > 100 µM (inactive)

CCOC(=O)c1sc2nc(SC)nc3c2c1N=CN3c1ccccc1Cl
GI50 (NCI-H23): 92.3 µM (inactive) | GI50 (NCI-H522): 20.5 µM (inactive) | GI50 (UACC-62): 33 µM (inactive) | GI50 (SF-295): 32.7 µM (inactive) | GI50 (UACC-257): > 100 µM (inactive) | GI50 (HT-29): > 100 µM (inactive) | GI50 (RXF 393): 18.1 µM (inactive) | GI50 (OVCAR-8): 52.6 µM (inactive) | GI50 (SR): 26.9 µM (inactive) | GI50 (LOX IMVI): > 100 µM (inactive) | GI50 (TK-10): > 100 µM (inactive) | GI50 (Hs-578T): 5.58 µM (inactive) | GI50 (OVCAR-3): 32.6 µM (inactive) | GI50 (MDA-MB-231): 30.9 µM (inactive) | GI50 (Malme-3M): 35 µM (inactive) | GI50 (SW-620): > 100 µM (inactive) | GI50 (MDA-N): > 100 µM (inactive) | GI50 (NCI-H226): > 100 µM (inactive) | GI50 (UO-31): > 100 µM (inactive) | GI50 (HCC 2998): > 100 µM (inactive) | GI50 (SN12C): > 100 µM (inactive) | GI50 (K562): 72.3 µM (inactive) | GI50 (HOP-92): 22.6 µM (inactive) | GI50 (PC-3): > 100 µM (inactive) | GI50 (NCI/ADR-RES): > 100 µM (inactive) | GI50 (SK-MEL-5): 52 µM (inactive) | GI50 (SF-268): 24.1 µM (inactive) | GI50 (T47D): 58.5 µM (inactive) | GI50 (HOP-62): 6.98 µM (inactive) | GI50 (CAKI-1): 26.2 µM (inactive) | GI50 (HL-60): 79.8 µM (inactive) | GI50 (BT-549): 26.7 µM (inactive) | GI50 (OVCAR-4): 17.2 µM (inactive) | GI50 (DU-145): > 100 µM (inactive) | GI50 (MOLT-4): 61.7 µM (inactive) | GI50 (A498): 10.1 µM (inactive) | GI50 (RPMI-8226): > 100 µM (inactive) | GI50 (SK-MEL-2): 49.2 µM (inactive) | GI50 (M14): 62.1 µM (inactive) | GI50 (OVCAR-5): > 100 µM (inactive) | GI50 (EKVX): 55.3 µM (inactive) | GI50 (COLO 205): > 100 µM (inactive) | GI50 (HCT-15): > 100 µM | GI50 (ACHN): 19.4 µM (inactive) | GI50 (HCT-116): 40.9 µM (inactive) | GI50 (U-251): 21.3 µM (inactive) | GI50 (KM12): > 100 µM (inactive) | GI50 (SK-OV-3): 31.4 µM (inactive) | GI50 (786-0): 14.1 µM (inactive) | GI50 (MCF7): > 100 µM (inactive) | GI50 (NCI-H460): > 100 µM (inactive) | GI50 (MDA-MB-435): > 100 µM (inactive) | GI50 (CCRF-CEM): 65.3 µM (inactive) | GI50 (A549): 71.3 µM (inactive) | GI50 (SNB-75): 14.4 µM (inactive) | GI50 (SNB-19): 29.4 µM (inactive) | GI50 (IGROV-1): 68.1 µM (inactive) | GI50 (SK-MEL-28): > 100 µM (inactive)

Cc1cn(CCCCOC(=O)NC(CCCNC(=N)N)C(=O)O)c(=O)[nH]c1=O (configuration not stated)
GI50 (NCI-H23): > 100 µM (inactive) | GI50 (UACC-62): > 100 µM (inactive) | GI50 (SF-295): > 100 µM (inactive) | GI50 (UACC-257): > 100 µM (inactive) | GI50 (SF-539): > 100 µM (inactive) | GI50 (HT-29): > 100 µM (inactive) | GI50 (RXF 393): > 100 µM (inactive) | GI50 (OVCAR-8): > 100 µM (inactive) | GI50 (SR): > 100 µM (inactive) | GI50 (LOX IMVI): > 100 µM (inactive) | GI50 (TK-10): > 100 µM (inactive) | GI50 (Hs-578T): > 100 µM (inactive) | GI50 (OVCAR-3): > 100 µM (inactive) | GI50 (MDA-MB-231): > 100 µM (inactive) | GI50 (SW-620): > 100 µM (inactive) | GI50 (MDA-N): > 100 µM (inactive) | GI50 (NCI-H226): > 100 µM (inactive) | GI50 (UO-31): > 100 µM (inactive) | GI50 (HCC 2998): > 100 µM (inactive) | GI50 (SN12C): > 100 µM (inactive) | GI50 (K562): > 100 µM (inactive) | GI50 (HOP-92): > 100 µM (inactive) | GI50 (PC-3): > 100 µM (inactive) | GI50 (NCI/ADR-RES): > 100 µM (inactive) | GI50 (SF-268): > 100 µM (inactive) | GI50 (T47D): > 100 µM (inactive) | GI50 (HOP-62): > 100 µM (inactive) | GI50 (CAKI-1): > 100 µM (inactive) | GI50 (HL-60): > 100 µM (inactive) | GI50 (BT-549): > 100 µM (inactive) | GI50 (OVCAR-4): > 100 µM (inactive) | GI50 (DU-145): > 100 µM (inactive) | GI50 (MOLT-4): > 100 µM (inactive) | GI50 (A498): > 100 µM (inactive) | GI50 (RPMI-8226): > 100 µM (inactive) | GI50 (SK-MEL-2): > 100 µM (inactive) | GI50 (M14): > 100 µM (inactive) | GI50 (OVCAR-5): > 100 µM (inactive) | GI50 (EKVX): > 100 µM (inactive) | GI50 (COLO 205): > 100 µM (inactive) | GI50 (HCT-15): > 100 µM | GI50 (ACHN): > 100 µM (inactive) | GI50 (HCT-116): > 100 µM (inactive) | GI50 (U-251): > 100 µM (inactive) | GI50 (KM12): > 100 µM (inactive) | GI50 (SK-OV-3): > 100 µM (inactive) | GI50 (786-0): > 100 µM (inactive) | GI50 (MCF7): > 100 µM (inactive) | GI50 (NCI-H460): > 100 µM (inactive) | GI50 (MDA-MB-435): > 100 µM (inactive) | GI50 (CCRF-CEM): > 100 µM (inactive) | GI50 (A549): > 100 µM (inactive) | GI50 (SNB-75): > 100 µM (inactive) | GI50 (SNB-19): > 100 µM (inactive) | GI50 (IGROV-1): > 100 µM (inactive) | GI50 (SK-MEL-28): > 100 µM (inactive)
